Five compounds from ChEMBL document CHEMBL1201862, “PubChem BioAssay data set” (2004) can be followed below.

Some test systems named below: CCRF-CEM; HCT-15; Hs-578T; M14; MDA-N; Malme-3M; NCI-H23; OVCAR-3; OVCAR-4; RPMI-8226; RXF 393; SF-295; SK-MEL-2; SK-MEL-5; SN12C; SNB-19; SR; TK-10; UACC-257; UO-31.
Assay in all cases: NCI-60 cell line screen, 48 h

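48-hour exposure; five concentrations; linearly interpolated endpoints. The concentration for 50% growth inhibition is given as GI50.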 Active and inactive are the calls of the source. Cut-off read from the data, not from the text of the source: active = GI50 up to about 1.1 µM and inactive = higher. Where only a bound is given, the exact number is not on record here.

On to `CC1=C(O)C(=O)C=C2C1=CC=C1[C@@]2(C)CC[C@@]2(C)[C@@H]3C[C@](C)(C(=O)O)CC[C@]3(C)CC[C@]12C` [CELASTROL], for which the GI50 is < 0.01 µM (active) in the test on CCRF-CEM; 0.0113 µM in the test on HCT-15; 0.0427 µM (active) in the test with Hs-578T; 0.0449 µM (active) in the test with M14; 0.0234 µM (active) with MDA-N; 0.0352 µM (active) in the test with Malme-3M. Further, the GI50 was 0.0526 µM (active) in the test on NCI-H23; 0.0264 µM (active) with OVCAR-3; 0.0188 µM (active) in the test on OVCAR-4; < 0.0136 µM (active) in the test with RPMI-8226; 0.0111 µM (active) in the test with RXF 393; 0.194 µM (active) in the test with SF-295. The GI50 in the test with SK-MEL-2 was 0.119 µM (active); in the test with SK-MEL-5 it was 0.07 µM (active); with SN12C, 0.0376 µM (active); with SNB-19 it was 0.0757 µM (active); in the test with SR, < 0.01 µM (active); in the test with TK-10, < 0.0105 µM (active). For the same compound, the GI50 in the test on UACC-257 is 0.0256 µM (active); with UO-31 it was 0.0308 µM (active).

On to `CCCC(O)c1cn(C(NC(=O)c2ccccc2)P(=O)(OCC)OCC)nn1` (stereo not given), for which the GI50 in the test on CCRF-CEM is > 100 µM (inactive); in the test on HCT-15, greater than 100 µM; in the test with Hs-578T, > 100 µM (inactive); in the test with M14, > 100 µM (inactive); in the test with MDA-N it was > 100 µM (inactive); with Malme-3M, > 100 µM (inactive). The GI50 in the test on NCI-H23, in the test with OVCAR-3, in the test on OVCAR-4, in the test with RPMI-8226, in the test on RXF 393 and in the test on SF-295 was > 100 µM (inactive) throughout. For the same compound, the GI50 in the test on SK-MEL-2, in the test with SK-MEL-5, in the test with SN12C, in the test on SNB-19, in the test on SR and in the test on TK-10 was > 100 µM (inactive) throughout. The GI50 with UACC-257 and in the test with UO-31 was > 100 µM (inactive) throughout.

On to `CCCCCCCCCCCCCCCCNc1ccn(C2CC(O)C(COC(c3ccccc3)(c3ccccc3)c3ccc(OC)cc3)O2)c(=O)n1` (stereo not given), for which the GI50 in the test on CCRF-CEM is 67.8 µM (inactive); in the test with HCT-15 it was greater than 100 µM; with Hs-578T it was > 100 µM (inactive); in the test on M14, > 100 µM (inactive); with MDA-N, > 100 µM (inactive); in the test on Malme-3M it was > 100 µM (inactive). Also, the GI50 in the test on NCI-H23, with OVCAR-3, with OVCAR-4, in the test on RPMI-8226, in the test on RXF 393 and with SF-295 was > 100 µM (inactive) in each case. Also, the GI50 with SK-MEL-2 was > 100 µM (inactive); in the test on SK-MEL-5, > 100 µM (inactive); in the test on SN12C it was > 100 µM (inactive); with SNB-19, > 100 µM (inactive); in the test with SR, 98.4 µM (inactive); with TK-10, > 100 µM (inactive). Moreover, the GI50 in the test with UACC-257 was > 10 µM (inactive); with UO-31, 20.9 µM (inactive).

Regarding `Cn1c(-c2cccs2)cc(-c2cccs2)c1-c1cccs1`, the GI50 with CCRF-CEM was 67 µM (inactive); in the test with HCT-15, 21.8 µM; in the test with Hs-578T it was 44.5 µM (inactive); with M14 it was > 79.8 µM (inactive); in the test with MDA-N, 55.2 µM (inactive); in the test with Malme-3M, > 100 µM (inactive). In addition, the GI50 was 13.6 µM (inactive) with NCI-H23; 43.8 µM (inactive) in the test on OVCAR-3; 39.1 µM (inactive) in the test with OVCAR-4; 20.4 µM (inactive) in the test with RPMI-8226; 54.2 µM (inactive) in the test on RXF 393; > 81.3 µM (inactive) in the test on SF-295. The GI50 was 44 µM (inactive) in the test on SK-MEL-2; 14.5 µM (inactive) in the test with SK-MEL-5; > 100 µM (inactive) with SN12C; > 100 µM (inactive) in the test on SNB-19; 13.6 µM (inactive) with SR; > 100 µM (inactive) with TK-10. The GI50 with UACC-257 was 16.5 µM (inactive); in the test on UO-31, > 96.4 µM (inactive).

For `Fc1ccc(C(OCCN2CCN(CCCCl)CC2)c2ccc(F)cc2)cc1`, the GI50 with CCRF-CEM was 40.2 µM (inactive); in the test with HCT-15 it was 17.3 µM; in the test with Hs-578T, 29.9 µM (inactive); in the test on M14 it was 18.9 µM (inactive); in the test on MDA-N, 20.7 µM (inactive); with Malme-3M, 17 µM (inactive). In addition, the GI50 in the test with NCI-H23 was 22.3 µM (inactive); in the test with OVCAR-3, 25.8 µM (inactive); in the test with OVCAR-4, 24.9 µM (inactive); with RPMI-8226, 20.8 µM (inactive); with RXF 393, 23.7 µM (inactive); in the test on SF-295 it was 22.9 µM (inactive). The GI50 is 24.2 µM (inactive) in the test with SK-MEL-2; 18 µM (inactive) with SK-MEL-5; 25.3 µM (inactive) in the test with SN12C; 37.6 µM (inactive) in the test on SNB-19; 18.8 µM (inactive) in the test on SR; 36.7 µM (inactive) in the test with TK-10. Further, the GI50 with UACC-257 is 21 µM (inactive); in the test on UO-31, 18.4 µM (inactive).
